The test system of this assay is P388 leukemia ip, CD2F1 mice, survival T/C. The experiment in a line: NCI In Vivo Anticancer Drug Screen. Data for tumor model P388 Leukemia (intraperitoneal) in CD2F1 (CDF1) mice. The note with it: endpoint: median survival time, higher = longer survival. In outline: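 Mice carrying the transplanted tumor received test compound or vehicle. Survival was recorded in each group, and the value is the treated-group measurement divided by that of the vehicle-treated control group.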

Where [1] appears, read: dose: 50.0 mg/kg/injection, schedule: Q01DX009 (ip), vehicle: saline.
Setting [2] is: dose: 100.0 mg/kg/injection, schedule: Q01DX009 (ip), vehicle: saline.
Setting [3] is: dose: 50.0 mg/kg/injection, schedule: Q01DX005 (ip), vehicle: Klucel (hydroxypropylcellulose) (HPC).
Where [4] appears, read: dose: 100.0 mg/kg/injection, schedule: Q01DX001 (ip), vehicle: saline with Tween-80.
Setting [5] is: dose: 200.0 mg/kg/injection, schedule: Q01DX001 (ip), vehicle: saline with Tween-80.
Where [6] appears, read: dose: 400.0 mg/kg/injection, schedule: Q01DX001 (ip), vehicle: saline with Tween-80.
Where [7] appears, read: dose: 100.0 mg/kg/injection, schedule: Q01DX009 (ip), vehicle: saline with Tween-80.
Where [8] appears, read: dose: 200.0 mg/kg/injection, schedule: Q01DX009 (ip), vehicle: saline with Tween-80.
[9] abbreviates: dose: 400.0 mg/kg/injection, schedule: Q01DX009 (ip), vehicle: saline with Tween-80.
Where [10] appears, read: dose: 25.0 mg/kg/injection, schedule: Q04DX003 (ip), vehicle: saline with Tween-80.
Where [11] appears, read: dose: 50.0 mg/kg/injection, schedule: Q01DX009 (ip), vehicle: suspension in saline.
[12] abbreviates: dose: 100.0 mg/kg/injection, schedule: Q01DX009 (ip), vehicle: suspension in saline.
[13] abbreviates: dose: 200.0 mg/kg/injection, schedule: Q01DX009 (ip), vehicle: suspension in saline.
The mark [14] stands for this setting: dose: 50.0 mg/kg/injection, schedule: Q01DX005 (ip), vehicle: saline.
Setting [15] is: dose: 100.0 mg/kg/injection, schedule: Q01DX005 (ip), vehicle: saline.

Where “and” joins values, the source holds several entries; their conditions need not be identical. Equal values may be shown once. Inconclusive results and toxic doses are left out.

For the molecule `C#CC(C)OC` (stereo not given), the T/C under setting [1] was 96 % of control; the T/C under setting [2] is 90 % of control; the T/C (dose: 200.0 mg/kg/injection, schedule: Q01DX009 (ip), vehicle: saline) was 86 % of control.

For the molecule `C=C1C(=O)OC2(C)C3CCC(C3)C12` (stereo not given), the T/C reads like this: under setting [1], 96 % of control; under setting [2], 113 % of control.

Regarding `Cc1nc2cc3ccccc3cc2nc1C`, the T/C under setting [3] is 100 % of control; the T/C (dose: 100.0 mg/kg/injection, schedule: Q01DX005 (ip), vehicle: Klucel (hydroxypropylcellulose) (HPC)) is 99 % of control; the T/C (dose: 200.0 mg/kg/injection, schedule: Q01DX005 (ip), vehicle: Klucel (hydroxypropylcellulose) (HPC)) is 100 % of control.

On to `COc1cc2c(=O)oc3c(OC)c(O)cc4c(=O)oc(c1OC)c2c34`, for which the T/C is 97 % of control (dose: 2.0 mg/kg/injection, schedule: Q01DX005 (ip), vehicle: saline with Tween-80); 100 % of control and 96 % of control and 98 % of control (dose: 4.0 mg/kg/injection, schedule: Q01DX005 (ip), vehicle: saline with Tween-80); 92 % of control and 96 % of control and 98 % of control (dose: 8.0 mg/kg/injection, schedule: Q01DX005 (ip), vehicle: saline with Tween-80); 87 % of control and 91 % of control (dose: 16.0 mg/kg/injection, schedule: Q01DX005 (ip), vehicle: saline with Tween-80); 89 % of control (dose: 32.0 mg/kg/injection, schedule: Q01DX005 (ip), vehicle: saline with Tween-80).

As to `C[C@]12CC[C@H](OC(=O)COc3ccc(N(CCCl)CCCl)cc3)C[C@@H]1CC[C@@H]1[C@@H]2CC[C@]2(C)NC(=O)CC[C@@H]12`, the T/C by setting is: (dose: 2.0 mg/kg/injection, schedule: Q01DX009 (ip), vehicle: saline with Tween-80) 120 % of control; (dose: 8.0 mg/kg/injection, schedule: Q01DX009 (ip), vehicle: saline with Tween-80) 151 % of control and 157 % of control and 192 % of control; (dose: 16.0 mg/kg/injection, schedule: Q01DX009 (ip), vehicle: saline with Tween-80) 180 % of control and 184 % of control and 192 % of control; (dose: 32.0 mg/kg/injection, schedule: Q01DX009 (ip), vehicle: saline with Tween-80) 107 % of control and 180 % of control and 217 % of control.

In the case of `CCOC(=O)C1=C(N)CCC2(C1)c1ccccc1-c1ccccc12`, the T/C reads like this: under setting [4], 97 % of control; under setting [5], 103 % of control; under setting [6], 93 % of control.

For `CC1CC(=O)C2(C)C1CC1CCC2(C)OC1(C)C` (stereo not given), the T/C runs as follows: under setting [7], 100 % of control; under setting [8], 102 % of control; under setting [9], 100 % of control.

For `CCCCCCC([Se]C)C(O)(CCC)CCC` (stereo not given), the T/C reads like this: under setting [10], 100 % of control; (dose: 50.0 mg/kg/injection, schedule: Q04DX003 (ip), vehicle: saline with Tween-80) 100 % of control; (dose: 100.0 mg/kg/injection, schedule: Q04DX003 (ip), vehicle: saline with Tween-80) 91 % of control.

For `COC(C#N)c1ccccc1` (stereo not given), the T/C is, setting by setting: (dose: 6.25 mg/kg/injection, schedule: Q04DX003 (ip), vehicle: saline with Tween-80) 100 % of control; (dose: 12.5 mg/kg/injection, schedule: Q04DX003 (ip), vehicle: saline with Tween-80) 100 % of control; under setting [10], 108 % of control and 115 % of control and 91 % of control; (dose: 25.0 mg/kg/injection, schedule: Q04DX003 (ip), vehicle: saline) 98 % of control.

On to `Cn1cnc2cc(NCCO)c([N+](=O)[O-])cc2c1=O`, for which the T/C by setting is: (dose: 100.0 mg/kg/injection, schedule: Q04DX003 (ip), vehicle: saline) 105 % of control; (dose: 200.0 mg/kg/injection, schedule: Q04DX003 (ip), vehicle: saline) 119 % of control; (dose: 400.0 mg/kg/injection, schedule: Q04DX003 (ip), vehicle: saline) 96 % of control.

On to `C/C=C/c1cccc(OC)c1OC`, for which the T/C reads like this: under setting [4], 108 % of control; under setting [5], 120 % of control; under setting [6], 110 % of control.

Consider `S=C(Nc1ccc(I)cc1)SCc1ccco1`, for which the T/C under setting [11] was 90 % of control, the T/C under setting [12] was 112 % of control and the T/C under setting [13] was 109 % of control.

Turning to `COc1ccc(Oc2cc3c[n+](C)ccc3cc2OC)cc1`, the T/C was 111 % of control (dose: 12.5 mg/kg/injection, schedule: Q01DX009 (ip), vehicle: saline) and 117 % of control (dose: 25.0 mg/kg/injection, schedule: Q01DX009 (ip), vehicle: saline).

Regarding `CCOC(=O)Nc1nc2ccc(SC#N)cc2s1`, the T/C is 107 % of control (dose: 6.25 mg/kg/injection, schedule: Q01DX009 (ip), vehicle: Klucel (hydroxypropylcellulose) (HPC)); 107 % of control (dose: 12.5 mg/kg/injection, schedule: Q01DX009 (ip), vehicle: Klucel (hydroxypropylcellulose) (HPC)); 96 % of control (dose: 25.0 mg/kg/injection, schedule: Q01DX009 (ip), vehicle: Klucel (hydroxypropylcellulose) (HPC)).

As to `CCC1OC(OC)C=CC1=O` (stereo not given), the T/C was 113 % of control (dose: 12.5 mg/kg/injection, schedule: Q01DX005 (ip), vehicle: Klucel (hydroxypropylcellulose) (HPC)); 101 % of control (dose: 12.5 mg/kg/injection, schedule: Q01DX005 (ip), vehicle: saline); 114 % of control (dose: 25.0 mg/kg/injection, schedule: Q01DX005 (ip), vehicle: Klucel (hydroxypropylcellulose) (HPC)); 108 % of control (dose: 25.0 mg/kg/injection, schedule: Q01DX005 (ip), vehicle: saline); 124 % of control under setting [3]; 98 % of control under setting [14]. Further, the T/C under setting [15] was 104 % of control.

Turning to `O=c1oc(-c2ccccc2CCl)nc2ccccc12`, the T/C is, setting by setting: (dose: 50.0 mg/kg/injection, schedule: Q01DX009 (ip), vehicle: saline with Tween-80) 106 % of control; under setting [7], 104 % of control; under setting [8], 101 % of control.

As to `CCCCCCCCCCCCCCCC(=O)NCCCCC(N)C(=O)O` (stereo not given), the T/C is, setting by setting: under setting [11], 94 % of control; under setting [12], 98 % of control; under setting [13], 96 % of control.

For `COC(=O)c1nc(N)nc(C(=O)OC)c1C(=O)c1cccs1`, the T/C is, setting by setting: (dose: 60.0 mg/kg/injection, schedule: Q01DX005 (ip), vehicle: saline with Tween-80) 98 % of control; (dose: 120.0 mg/kg/injection, schedule: Q01DX005 (ip), vehicle: saline with Tween-80) 99 % of control.

As to `CCOC(=O)Nc1nncs1`, the T/C was 103 % of control (dose: 12.5 mg/kg/injection, schedule: Q01DX009 (ip), vehicle: distilled water + Tween-80); 105 % of control and 108 % of control (dose: 25.0 mg/kg/injection, schedule: Q01DX009 (ip), vehicle: distilled water + Tween-80); 108 % of control (dose: 50.0 mg/kg/injection, schedule: Q01DX009 (ip), vehicle: distilled water + Tween-80); 100 % of control (dose: 100.0 mg/kg/injection, schedule: Q01DX009 (ip), vehicle: distilled water + Tween-80); 151 % of control and 168 % of control (dose: 200.0 mg/kg/injection, schedule: Q01DX009 (ip), vehicle: distilled water + Tween-80); 108 % of control (dose: 400.0 mg/kg/injection, schedule: Q01DX009 (ip), vehicle: distilled water + Tween-80).

With `Cc1ccc(NC(=O)c2ccc(Cl)cc2Cl)cc1C`, the T/C under setting [7] is 95 % of control, the T/C under setting [8] was 104 % of control and the T/C under setting [9] was 100 % of control.

Regarding `CCC1=CC2CN(CCc3c([nH]c4ccccc34)C(C(=O)OC)(c3cc4c(cc3OC)N(C)C3C(C(=O)OC)=CC5(CC)CCCN6CCC43C65)C2)C1` (stereo not given), the T/C reads like this: (dose: 12.5 mg/kg/injection, schedule: Q01DX001 (ip), vehicle: water) 100 % of control; (dose: 25.0 mg/kg/injection, schedule: Q01DX001 (ip), vehicle: water) 100 % of control; (dose: 50.0 mg/kg/injection, schedule: Q01DX001 (ip), vehicle: water) 112 % of control; (dose: 100.0 mg/kg/injection, schedule: Q01DX001 (ip), vehicle: water) 100 % of control; (dose: 200.0 mg/kg/injection, schedule: Q01DX001 (ip), vehicle: water) 100 % of control.

Turning to `O=C1C(Cl)=C(NCC2CCCN3CCCCC23)C(=O)c2ccccc21` (stereo not given), the T/C was 113 % of control under setting [14] and 117 % of control under setting [15].

For the origin of these results see PubChem BioAssay AID330 (DTP/NCI, 2004).
